Where “and” joins values, the source holds several entries; their conditions need not be identical. Equal entries are not always repeated.
Experiments:
[1] = biological target: EcoDgoR / dgo cis-acting element (Escherichia coli, UniProt P31460); assay: EMSA of WT EcoDgoR with dgo cis-acting element; type: biochemical; conditions: for effect on stability of EcoDgoR/DNA complex (EMSA): EDTA-treated EcoDgoR, 0.5 mM sugar plus divalent metal cation (Zn2+, Ca2+ or Mg2+); for effect on EcoDgoR/DNA complex (EMSA): EcoDgoR pre-incubated with 5 mM EDTA, sugar alone (0.5 mM), no metal added; for effect on DNA bound by EcoDgoR (EMSA): WT EcoDgoR, 0.5 mM sugar
EcoDgoR / dgo cis-acting element, sequence (P31460 whole entry): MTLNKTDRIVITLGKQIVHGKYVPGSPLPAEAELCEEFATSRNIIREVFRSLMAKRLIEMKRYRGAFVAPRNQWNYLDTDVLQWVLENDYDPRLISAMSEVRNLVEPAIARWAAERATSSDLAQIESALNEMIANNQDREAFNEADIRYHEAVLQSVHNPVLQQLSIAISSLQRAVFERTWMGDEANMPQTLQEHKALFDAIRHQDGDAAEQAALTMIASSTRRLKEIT
Source text: (§1) For expression of the recombinant DgoR mutants (i.e., R102A, D146A, H150A, Q173A, R179A, W181A, D184A, T191A, H195A, S221A, R224A, and R224E), the wild-type E. coli dgoR gene on the expression plasmid pET28a was mutated using the site-directed mutagenesis method. The dgo cis-acting element region of E. coli K12 was generated by PCR and subsequently inserted into the HincII site of pUC18. The obtained plasmid was used as the template for preparation of the Cy5-labeled probes using the universal primer pair of Cy5-labeled dgoRcis-acting_F and dgoRcis-acting_R. Cy5-labeled probe (100 ng) was incubated with different amounts of dgoR or its mutants at 25°C for 20 min in a buffer comprising of 25 mM Tris-HCl (pH 8.0), 50 mM KCl, 2.5 mM MgCl2, 5% glycerol, 1 mM dithiothreitol (DTT), and 100 μg/mL sonicated salmon sperm DNA (Sangon) (total volume 20 μl). The resulting DNA-protein complexes were subjected to electrophoresis on native PAGE gels at 100 V, 4°C for 2.5 h in a running buffer containing 25 mM Tris-HCl (pH 7.8) and 250 mM glycine. After electrophoresis, gels were directly scanned for fluorescent DNAs using an ImageQuantTM LAS 4000 system (GE Healthcare). For EMSAs in the presence or absence of D-galactonate or D-glucose, 0.5 mM D-galactonate or D-glucose was applied.

[2] = biological target: EcoDgoR R102A (Escherichia coli, UniProt P31460, R102A); assay: MST binding assay, EcoDgoR R102A mutant
EcoDgoR R102A, sequence (P31460 whole entry R102A): as the sequence (P31460 whole entry) above, with R102A counted along it
Experimental: (§2) His-tagged DgoR and its derivatives were labeled with the NT-647-NHS dye using the Monolith NT^TM Protein Labeling Kit RED-NHS (NanoTemper Technologies) ([Magnez et al., 2017]; [Welsch et al., 2017]). Serially diluted unlabeled proteins and 100 nM of labeled DgoR or its derivatives were incubated for 15 min at room temperature in binding buffer (1.8 mM KH2PO4, 10 mM Na2HPO4, 137 mM NaCl, 2.7 mM KCl, and 0.05% Tween-20, pH 7.8) in a final volume of 20 μL. Subsequently, samples were loaded into NT.115 premium coated capillaries (NanoTemper Technologies). Binding experiments were performed using a Monolith NT.115 Pico apparatus (NanoTemper Technologies) with the following parameters: LED power 5 %, MST Power high. MST traces were analyzed between 4.00 and 5.00 s after turning on the IR-Laser. Measurements were carried out with D-galactonate. For each experiment, the unlabeled proteins were produced from independent preparations. Results were obtained with the MO Control software version 1.6. MO Affinity Analysis software version 2.3 was used to determine the fraction of the formed complex. Apparent dissociation constants (Kd) were calculated using nonlinear fitting assuming one specific binding site with the GraphPad Prism 7 software with the following formula
(§3) (whereBisMaxthemaximumtheoreticalspecificbinding,hereB=Max1).

[3] = biological target: EcoDgoR W181A (Escherichia coli, UniProt P31460, W181A); assay: MST binding assay, EcoDgoR W181A mutant
EcoDgoR W181A, sequence (P31460 whole entry W181A): as the sequence (P31460 whole entry) above, with W181A counted along it
Experimental: as §2, §3

[4] = biological target: EcoDgoR S221A / dgo cis-acting element (Escherichia coli, UniProt P31460, S221A); assay: EMSA of EcoDgoR S221A with dgo cis-acting element; type: biochemical; conditions: supplementation of D-galactonate
EcoDgoR S221A / dgo cis-acting element, sequence (P31460 whole entry S221A): as the sequence (P31460 whole entry) above, with S221A counted along it
Source text: as §1

[5] = biological target: EcoDgoR D146A / dgo cis-acting element (Escherichia coli, UniProt P31460, D146A); assay: EMSA of EcoDgoR D146A with dgo cis-acting element; type: biochemical; conditions: supplementation of D-galactonate
EcoDgoR D146A / dgo cis-acting element, sequence (P31460 whole entry D146A): as the sequence (P31460 whole entry) above, with D146A counted along it
Source text: as §1

[6] = biological target: EcoDgoR D184A / dgo cis-acting element (Escherichia coli, UniProt P31460, D184A); assay: EMSA of EcoDgoR D184A with dgo cis-acting element; type: biochemical; conditions: D184A 8 μM, 0.5 mM D-galactonate
EcoDgoR D184A / dgo cis-acting element, sequence (P31460 whole entry D184A): as the sequence (P31460 whole entry) above, with D184A counted along it
Source text: as §1

[7] = biological target: EcoDgoR H150A (Escherichia coli, UniProt P31460, H150A); assay: MST binding assay, EcoDgoR H150A mutant
EcoDgoR H150A, sequence (P31460 whole entry H150A): as the sequence (P31460 whole entry) above, with H150A counted along it
Experimental: as §2, §3

[8] = biological target: EcoDgoR R224E / dgo cis-acting element (Escherichia coli, UniProt P31460, R224E); assay: EMSA of EcoDgoR R224E with dgo cis-acting element; type: biochemical; conditions: 0.5 mM D-galactonate
EcoDgoR R224E / dgo cis-acting element, sequence (P31460 whole entry R224E): as the sequence (P31460 whole entry) above, with R224E counted along it
Source text: as §1

[9] = biological target: EcoDgoR R224A (Escherichia coli, UniProt P31460, R224A); assay: MST binding assay, EcoDgoR R224A mutant
EcoDgoR R224A, sequence (P31460 whole entry R224A): as the sequence (P31460 whole entry) above, with R224A counted along it
Experimental: as §2, §3

[10] = biological target: EcoDgoR R179A / dgo cis-acting element (Escherichia coli, UniProt P31460, R179A); assay: EMSA of EcoDgoR R179A with dgo cis-acting element; type: biochemical; conditions: presence vs absence of 0.5 mM D-galactonate
EcoDgoR R179A / dgo cis-acting element, sequence (P31460 whole entry R179A): as the sequence (P31460 whole entry) above, with R179A counted along it
Source text: as §1

[11] = biological target: EcoDgoR R224A / dgo cis-acting element (Escherichia coli, UniProt P31460, R224A); assay: EMSA of EcoDgoR R224A with dgo cis-acting element; type: biochemical; conditions: 0.5 mM D-galactonate
EcoDgoR R224A / dgo cis-acting element, sequence (P31460 whole entry R224A): as the sequence (P31460 whole entry) above, with R224A counted along it
Source text: as §1

[12] = biological target: WT-EcoDgoR (Escherichia coli, UniProt P31460); assay: MST binding assay, D-galactonate to wild-type EcoDgoR
WT-EcoDgoR, sequence (P31460 whole entry): as the sequence (P31460 whole entry) above
Experimental: as §2, §3

[13] = biological target: EcoDgoR H195A / dgo cis-acting element (Escherichia coli, UniProt P31460, H195A); assay: EMSA of EcoDgoR H195A with dgo cis-acting element; type: biochemical; conditions: 0.5 mM D-galactonate
EcoDgoR H195A / dgo cis-acting element, sequence (P31460 whole entry H195A): as the sequence (P31460 whole entry) above, with H195A counted along it
Source text: as §1

[14] = biological target: EcoDgoR H150A / dgo cis-acting element (Escherichia coli, UniProt P31460, H150A); assay: EMSA of EcoDgoR H150A with dgo cis-acting element; type: biochemical; conditions: 0.5 mM D-galactonate
EcoDgoR H150A / dgo cis-acting element, sequence (P31460 whole entry H150A): as the sequence (P31460 whole entry) above, with H150A counted along it
Source text: as §1

[15] = biological target: EcoDgoR Q173A / dgo cis-acting element (Escherichia coli, UniProt P31460, Q173A); assay: EMSA of EcoDgoR Q173A with dgo cis-acting element; type: biochemical; conditions: Q173A 8 μM, 0.5 mM D-galactonate
EcoDgoR Q173A / dgo cis-acting element, sequence (P31460 whole entry Q173A): as the sequence (P31460 whole entry) above, with Q173A counted along it
Source text: as §1

[16] = biological target: EcoDgoR R102A / dgo cis-acting element (Escherichia coli, UniProt P31460, R102A); assay: EMSA of EcoDgoR R102A with dgo cis-acting element; type: biochemical; conditions: R102A 8 μM, 0.5 mM D-galactonate
EcoDgoR R102A / dgo cis-acting element, sequence (P31460 whole entry R102A): as the sequence (P31460 whole entry) above, with R102A counted along it
Source text: as §1

[17] = biological target: EcoDgoR W181A / dgo cis-acting element (Escherichia coli, UniProt P31460, W181A); assay: EMSA of EcoDgoR W181A with dgo cis-acting element; type: biochemical; conditions: presence vs absence of 0.5 mM D-galactonate
EcoDgoR W181A / dgo cis-acting element, sequence (P31460 whole entry W181A): as the sequence (P31460 whole entry) above, with W181A counted along it
Source text: as §1

[18] = biological target: EcoDgoR T191A / dgo cis-acting element (Escherichia coli, UniProt P31460, T191A); assay: EMSA of EcoDgoR T191A with dgo cis-acting element; type: biochemical; conditions: T191A 8 μM, 0.5 mM D-galactonate
EcoDgoR T191A / dgo cis-acting element, sequence (P31460 whole entry T191A): as the sequence (P31460 whole entry) above, with T191A counted along it
Source text: as §1

[19] = biological target: EcoDgoR T191A (Escherichia coli, UniProt P31460, T191A); assay: MST binding assay, EcoDgoR T191A mutant
EcoDgoR T191A, sequence (P31460 whole entry T191A): as the sequence (P31460 whole entry) above, with T191A counted along it
Experimental: as §2, §3

OC[C@H]1OC(O)[C@H](O)[C@@H](O)[C@@H]1O (stereo partly drawn) [D-glucose]
effect on stability of EcoDgoR/DNA complex (EMSA) [1]: not affected significantly
effect on EcoDgoR/DNA complex (EMSA) [1]: didn’t disrupt the formation of stable protein/DNA complexes
effect on DNA bound by EcoDgoR (EMSA) [1]: did not display such effect

O=C(O)[C@H](O)[C@@H](O)[C@@H](O)[C@H](O)CO [D-galactonate]
Kd [2]: > 50 mM
interaction with D-galactonate (MST) ([2]; R102A mutant): did not interact
Kd [3]: > 50 mM
interaction with D-galactonate (MST) ([3]; W181A mutant): did not interact
effect on DNA binding of mutant (EMSA) [4]: slightly decreased their ability to bind DNA
effect on DNA binding of mutant (EMSA) [5]: slightly decreased their ability to bind DNA
effect on DNA binding of mutant (EMSA) [6]: restored their DNA binding ability to some extent
Kd [7]: 4.99 ± 1.02 mM
effect on stability of EcoDgoR/DNA complex (EMSA) [1]: decreased the stability of EcoDgoR/DNA complex
effect on EcoDgoR/DNA complex (EMSA) [1]: didn’t disrupt the formation of stable protein/DNA complexes
effect on DNA bound by EcoDgoR (EMSA) [1]: relieved DNA bound by EcoDgoR in a concentration-dependent manner
effect on DNA binding of mutant (EMSA) [8]: remain inability to bind DNA
Kd [9]: > 50 mM
interaction with D-galactonate (MST) ([9]; R224A mutant): did not interact
effect on DNA binding of mutant (EMSA) [10]: no significant difference in DNA binding affinity
effect on DNA binding of mutant (EMSA) [11]: remain inability to bind DNA
Kd ([12]; WT EcoDgoR 100 nM, D-galactonate 305 nM to 10 mM): ~0.22 mM and 0.22 mM
Kd ([12]; WT EcoDgoR after EDTA incubation): 30 ± 20.3 mM
effect on DNA binding of mutant (EMSA) [13]: remain inability to bind DNA
effect on DNA binding of mutant (EMSA) [14]: remain inability to bind DNA
effect on DNA binding of mutant (EMSA) [15]: restored their DNA binding ability to some extent
effect on DNA binding of mutant (EMSA) [16]: restored their DNA binding ability to some extent
effect on DNA binding of mutant (EMSA) [17]: no significant difference in DNA binding affinity
effect on DNA binding of mutant (EMSA) [18]: restored their DNA binding ability to some extent
Kd [19]: > 50 mM
interaction with D-galactonate (MST) ([19]; T191A mutant): did not interact
